Results reported in patent US10544167B2, “Compounds as stimuli-responsive probes, methods and applications thereof” (JAWAHARLAL NEHRU CENTRE FOR ADVANCED SCIENTIFIC RESEARCH, priority 2015, dated 2020).

Assays:
H2O2 in HeLa cells [1] = assay: H2O2 detection after genotoxic stress (BrdU/doxorubicin) in HeLa cells, fluorescence plate reader; format: cell-based, Human; details: for fold increase in fluorescence compared to control cells: BrdU (100 μM), about 48 hours
Protocol: (§1) The cells are incubated with QCy-BA (5 μM) for 30 minutes in dark, washed with PBS and analysed to detect QCy-BA dye fluorescence using Infinite M1000 Pro, Tecan, Austria). Wavelengths used for excitation and emission for QCy-BA dye is 400 nm/650 nm. In all ROS measurement assays are done using plate reader and after fluorescence measurements, cells are washed, trypsinized and counted to estimate fluorescence per cell recordings.
To measure ROS generated concomitant to the dose of the DNA damage, HeLa cells are treated with increasing doses (0 to 200 μM) of 5-bromo-2′-deoxyuridine (BrdU). BrdU is a thymidine analog, which gets directly incorporated into DNA and triggers DNA damage response. From previous studies in the art it is known that 48 hours of treatment with BrdU (100 μM) or another DNA damaging agent, doxorubicin at a concentration of 0.1 μM can lead to the induction of cellular senescence.

[2] = Detection limit of H2O2 in presence of QCy-BA (concentration-dependent fluorescence, microplate reader); details: QCy-BA 5 μM, PBS buffer, excitation 400 nm, 3σ/slope
Protocol: Concentration dependent studies are performed using microplate reader. In the well-plates, first QCy-BA (5 μM) in buffer solution is taken, then increasing concentration of H2O2 from 0 to 100 μM is added. Upon excitation at 400 nm, the emission at […] as function time after addition of H2O2 is collected. The fluorescence intensity at […] is plotted as a function of concentration of hydrogen peroxide and each experiment is done in triplicates.
Further, concentration-dependent fluorescence study on slicing of the phenyl boronic acid functionality of QCy-BA (5 μM) in response to sequential addition of H2O2 (5 to 100 μM) is performed. The fluorescence intensity of QCy-BA at 565 nm is decreased in response to added H2O2 in the concentration range of 5 to 50 μM and subsequently reached saturation at 100 μM. A linear relationship (R^2=0.9877) is observed with increasing concentration of H2O2 in the concentration range of 5-50 JAM. Based on 3a/slope the limit of detection (LOD) of H2O2, using the decrease in fluorescence of QCy-BA at 565 nm, is found to be 5.3 μM (FIG. 7). H2O2 is one of the many ROS present in the biological system and it is necessary to test the probe QCy-BA against all of them to assess the selectivity and specificity. […]

HeLa cells = assay: Cytotoxicity on HeLa cells (MTT assay); format: cell-based, Human
Protocol: MTT [(3-(4,5-dimethylthiozol-2yl)-2,5-diphenyltetrazolium bromide] assay is carried out with probe QCy-BA on HeLa cells to determine the cytotoxicity effect. In a tissue cultured 96-well plate, 10,000 cells per well are plated and incubated for 24 h, for cells to attach. After completion of 24 h incubation, the attached and healthy cells are treated with various concentrations (25 μM, 12.5 μM, 6.25 μM, 3.125 μM and 0 μM) of probe QCy-BA and further incubated for 24 h. All the treatments are carried out in triplicates. The required concentrations of QCy-BA are made from stock solution in 0.2% DMEM. Stock solution of probe QCy-BA (1 mg/mL) is made in water. Four hours before stipulated time of experiment, MTT-solution (5 mg/mL of 20 μL) is added in each well and incubated to form formazan crystals. The culture medium is completely removed by 1 mL pipette and 200 μL of DMSO is added to dissolve formazan crystals. The purple colored formazan is estimated by determining absorbance at 590 nm with the help of spectrophotometer (Bio-RAD model 1680, Microplate reader). The results are shown in bar graphs (concentration of QCy-BA vs % cell viability).
In order to check the cytotoxicity of probe QCy-BA cell viability assay is performed in HeLa cells. Upon incubation with QCy-BA, more than 80% of the cells are viable even at 25 μM concentration after about 24 hours (FIG. 15).

H2O2 in HeLa cells [3] = assay: Confocal fluorescence imaging of HeLa cells treated with exogenous H2O2; format: cell-based, Human; details: QCy-BA 5 μM 30 minutes, then H2O2 100 μM about 15 minutes
Protocol: An Immunofluorescence studies are carried out on HeLa cells to validate exogenous and endogenous detection of H2O2 by QCy-BA. The HeLa cells (10,000 cells) are grown on cover slips. These cells are treated with 5 μM concentration of QCy-BA for 30 minutes. The cells are washed with DPBS for several times to remove the excesses of QCy-BA. The cells are treated with H2O2 (100 μM) for 30 minutes. These samples are subjected to confocal microscopy for immunefluorescence images.
Remarkable selectivity of QCy-BA towards H2O2 and its detection through DNA-assisted switch-on NIR fluorescence led to evaluation of the uptake and application of the probe to detect H2O2 in cells. For this purpose, confocal fluorescence imaging of HeLa cells treated with H2O2 (exogenous) is carried out. First, the HeLa cells are incubated with QCy-BA (5 μM) for about 30 minutes and imaged under a confocal microscope. […] HeLa cells containing QCy-BA are then treated with H2O2 (100 μM) for about 15 minutes, after which the cells are again scanned under a confocal microscope.

H2O2 in HeLa cells [4] = assay: Exogenous and endogenous detection of H2O2 in HeLa cells by flow cytometry (FACS); format: cell-based, Human; details: probe about 5 μM, about 30 minutes, absence of NAC
Protocol: In each well, […] cells are plated in 12-well tissue culture plates and incubated for 24 hours. These cells are serum deprived for 1 h. In addition, the serum deprived cells of 6-well are treated with N-acetyl-L-cysteine (NAC) (8 mM) solution and incubated for 1 hour and cells are treated with probe QCy-BA (5 μM) and incubated for 30 minutes. After 30 minutes incubation, the cells are washed with DPBS (Dulbecco's Phosphate buffer saline) to remove the excesses of QCy-BA. These cells are harvested after trypsinization. Exogenously, H2O2 (100 μM) is added to QCy-BA and NAC+QCy-BA treated cells and incubated for 15 min. These samples are subjected to FACS analysis.
NMR, photophysical study. […] Next. QCy-BA for probing cellular (physiologically generated) H2O2 levels in live cells is employed. HeLa cells are incubated with QCy-BA (about 5 μM) for about 30 minutes in the absence and presence of N-acetyl-L-cysteine (NAC), a well-known H2O2 scavenger. […] Thus, probe QCy-BA is also capable of detecting the cellular H2O2 levels in live cells.

H2O2 in MRC5 cells = assay: H2O2 detection after genotoxic stress (BrdU/doxorubicin) in primary MRC5 cells, fluorescence plate reader; format: cell-based, human; details: MRC5, various doses of BrdU and doxorubicin 0.1 μM, 72 h; probe 5 μM
Protocol: as §1
Further, similar experiments are performed in primary MRC5 cells, which are human lung primary fibroblasts. To induce DNA damage, MRC5 cells are similarly treated with various doses of BrdU and doxorubicin (0.1 μM) for 72 h. […] Therefore, above results reveal that QCy-BA is a versatile probe to monitor the elevated levels of H2O2 in both primary and cancer cells in senescence state.

[5] = tested on: H2O2 produced by EGF/Nox pathway in HeLa cells; assay: EGF produced H2O2 detection in HeLa cells by flow cytometry (FACS); format: cell-based, Human; details: EGF 500 ng/mL about 40 minutes, QCy-BA 5 μM 30 minutes
Protocol: To determine the EGF produced ROS in cells by QCy-BA. In a 12-well plate, […] HeLa cells are plated in each well and incubated for 24 hour. These cells are serum deprived for 1 h. Cells are incubated with EGF (500 ng/mL) for 40 minutes and further treated with NAC (8 mM) for 1 hour. Then cells are treated with QCy-BA (5 μM) for 30 minutes. After 30 minutes incubation of cells with QCy-BA, cells are washed with DPBS (Dulbecco's Phosphate Buffer Saline) to remove the excesses of QCy-BA. These cells are harvested after trypsinization. The samples are subjected to FACS.
Further, the study is extended to visualize the in situ H2O2 generation by a known signaling pathway in live cells. Well-known epidermal growth factor (EGF) binding to epidermal growth factor receptor (EGFR) signaling pathway is selected, which stimulates the production of H2O2 in cells by activating the NOX/PI3K pathways. In this experiment, live HeLa cells are incubated with the epidermal growth factor (EGF) (500 ng/mL) for about 40 minutes under physiological conditions (37° C., pH=7.4).

[6] = Fluorescence response of QCy-BA to various reactive oxygen species (selectivity); details: QCy-BA 5 μM; superoxide, hydroxyl radical, tert-butoxy radical, hypochlorite, 100 μM each
Protocol: Further, concentration-dependent fluorescence study on slicing of the phenyl boronic acid functionality of QCy-BA (5 μM) in response to sequential addition of H2O2 (5 to 100 μM) is performed. The fluorescence intensity of QCy-BA at 565 nm is decreased in response to added H2O2 in the concentration range of 5 to 50 μM and subsequently reached saturation at 100 μM. A linear relationship (R^2=0.9877) is observed with increasing concentration of H2O2 in the concentration range of 5-50 JAM. Based on 3a/slope the limit of detection (LOD) of H2O2, using the decrease in fluorescence of QCy-BA at 565 nm, is found to be 5.3 μM (FIG. 7). H2O2 is one of the many ROS present in the biological system and it is necessary to test the probe QCy-BA against all of them to assess the selectivity and specificity. Therefore, the response of QCy-BA towards H2O2 (100 μM) in the presence of other ROS (100 μM) is examined, including tertbutyl hydroperoxide (TBHP), superoxide (O2^−), hydroxyl radical (HO.), tert-butoxy radical (^tBuO.) and hypochlorite (OCl^−).

[7] = Time-dependent fluorescence study of release kinetics of QCy-BA to QCy-DT in response to H2O2 in presence of Drew-AT; details: QCy-BA 2 μM, Drew-AT 2 μM
Protocol: The time-dependent fluorescence study is carried out to evaluate the release kinetics of QCy-BA (2 μM) to QCy-DT in response to H2O2 (100 μM) stimulus, in presence of Drew-AT duplex. The change in fluorescence intensities at […] and 650 nm corresponding to emission maxima (Emax) of QCy-BA and QCy-DT in presence of Drew-AT is monitored.
The calculation of kinetics parameter using pseudo-first-order conditions for conversion of QCy-BA (2 μM) to QCy-DT in the presence of H2O2 (1 mM) and Drew-AT (2 μM) gave the rate constant of kobs=1.0×10^−3 s^−1 (FIG. 10).

[8] = Time-dependent NMR analysis of H2O2 triggered slicing of phenyl boronic acid of QCy-BA; details: QCy-BA 2 mM in D2O, H2O2 10 mM, 1H NMR
Protocol: In a preliminary study, time-dependent NMR spectroscopy analysis of QCy-BA is carried out in the presence of H2O2 to assess the stimuli-responsive slicing of phenyl boronic acid functionality (FIG. 1(a)).
The chemical shifts of O—CH2, aromatic region of QCy-BA and appearance of possible new peaks for p-quinonemethide (sliced byproduct corresponding to phenyl boronic acid functionality) upon sequential addition of H2O2 is monitored. […] The peaks at 5.20 ppm and aromatic region 6.5-7.0 ppm correspond to the newly-formed exocyclic C—Hb protons of p-quinone-methide and QCy-DT moieties, respectively. After about 2 hours, a single peak at 5.20 ppm and prominent new peaks at 6.5-7.0 ppm are observed, indicating the complete conversion of QCy-BA to QCy-DT and p-quinonemethide (FIG. 1(b)). This study confirmed the H2O2 stimulus-triggered slicing of phenyl boronic acid functionality of QCy-BA to release QCy-DT, a DNA minor groove binding probe. It is observed that the color of the solution changes from yellow to brown after the addition of H2O2 to QCy-BA, a naked eye detection of the formation of p-quinone-methide and QCy-DT (FIG. 1(c)).

Structure (SMILES) | fold change of fluorescence (summary for DCFDA) (H2O2 in HeLa cells [1]; BrdU 100 μM and doxorubicin 0.1 μM, 48 h) | fold increase in fluorescence compared to control cells (H2O2 in HeLa cells [1]) | limit of detection (LOD) of H2O2, using the decrease in fluorescence of QCy-BA at 565 nm [2] | viable cells (HeLa cells; 25 μM, about 24 hours) | toxicity (in words) (HeLa cells; standard working concentration about 5 μM, 24 hours) | fluorescence in HeLa cells after H2O2 (H2O2 in HeLa cells [3]) | mean fluorescence intensity of PerCP compared to control cells (H2O2 in HeLa cells [4]) | fluorescence compared to control cells (H2O2 in MRC5 cells) | fluorescence intensity in the PerCP region after EGF stimulation [5] | effect of other ROS on the probe response (fluorescence at 565 nm) [6] | time to saturation of emission intensity at 650 nm ([7]; H2O2 100 μM, excitation 564 nm) | rate constant kobs for conversion of QCy-BA to QCy-DT ([7]; pseudo-first-order, H2O2 1 mM, emission 650 nm) | time to complete conversion of QCy-BA to QCy-DT and p-quinonemethide [8]
CC(=O)Oc1cc2c(cc1Cl)C(c1ccccc1C(=O)O)c1cc(Cl)c(OC(C)=O)cc1O2 [DCFDA, 2′,7′-dichlorofluorescin diacetate] | 3-4 fold | 3 fold |  |  |  |  |  |  |  |  |  |  | 
C[n+]1c(/C=C/c2ccc(OCc3ccc(B(O)O)cc3)c(/C=C/c3sc4ccccc4[n+]3C)c2)sc2ccccc21.[I-].[I-] [QCy-BA, 4-((N, N-dimethyl, 2,4-bis((E)-2-(benzo[d]thiazol-2-ylinium)vinyl)phenoxy)methyl)phenylboronic acid] |  | ~10 fold | 5.3 µM | more than 80% | non-toxicity | strong fluorescence in the red channel with maximum localization in the cell nucleus | increase in mean fluorescence intensity of PerCP | increase in fluorescence compared to control cells in a dose-dependent manner | strong fluorescence intensity | very minimal or no effect | ≥ 4 h | 0.001 s⁻¹ | about 2 hours
